For data set [1] the following is noted: compared with polymorphic Form A; cited from earlier work.
Data set [2] can be described thus: solid state stability of the polymorphic forms. In kind it is physicochemical.

Where a name gives a salt, the structure may show the parent alone.

As for `C#Cc1cccc(Nc2ncnc3cc(OCCOC)c(OCCOC)cc23)c1` [Form-B, Erlotinib HCl], the thermodynamic stability entry in data set [1] is “thermodynamically more stable”.

For `C#Cc1cccc(Nc2ncnc3cc(OCCOC)c(OCCOC)cc23)c1.Cl` [Form-M, Erlotinib Hydrochloride], the “stability in the solid state” value in data set [2] (higher temperatures of the order of 60°-120° C.) and in data set [2] (room temperature (30°-35° C.)) was “very stable” throughout.

The record behind these values is patent US8748602B2, “Polymorphs of erlotinib hydrochloride and method of preparation” (Natco Pharma Limited, priority 2007, dated 2014).
